According to ChEMBL document CHEMBL1201862, “PubChem BioAssay data set” (2004):
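Step 1: Grow cells in 96-well plates. Step 2: Expose to compound for 48 hours at 5 concentrations. Step 3: Interpolate endpoints linearly; if unreached, use highest concentration. Here, GI50 denotes the concentration required for 50% inhibition of growth.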 Active and inactive are the calls of the source. No stated cut-off is given here; in the data, active = GI50 up to about 1.1 µM and inactive = higher.

Experiments:
Assay in all cases: inhibition of tumour cell growth, NCI panel, 48 h
MDA-MB-435 = tested on: MDA-MB-435
A549 = tested on: A549
EKVX = tested on: EKVX
HCT-116 = tested on: HCT-116
NCI-H23 = tested on: NCI-H23
NCI-H460 = tested on: NCI-H460
SF-268 = tested on: SF-268
OVCAR-5 = tested on: OVCAR-5
DU-145 = tested on: DU-145
HT-29 = tested on: HT-29
UO-31 = tested on: UO-31
K562 = tested on: K562
NCI/ADR-RES = tested on: NCI/ADR-RES
HCC 2998 = tested on: HCC 2998
786-0 = tested on: 786-0
SW-620 = tested on: SW-620
HOP-92 = tested on: HOP-92
OVCAR-8 = tested on: OVCAR-8
LOX IMVI = tested on: LOX IMVI

Measured: GI50

O=c1oc2ccc3ccccc3c2cc1-c1nnc(Nc2ccccc2)s1
inactive: MDA-MB-435 78.3 µM | A549 31.4 µM | EKVX 46.5 µM | HCT-116 22.5 µM | NCI-H23 31 µM | NCI-H460 18.7 µM | SF-268 61.8 µM | OVCAR-5 > 100 µM | DU-145 24.5 µM | HT-29 41 µM | UO-31 21.4 µM | K562 51.5 µM | NCI/ADR-RES 52.5 µM | HCC 2998 44.8 µM | 786-0 16 µM

O=C(Nc1ccc(Cl)c(C(F)(F)F)c1)C(=O)C(C(=O)/C=C/c1ccccc1)C1OC(=O)c2ccccc21 (configuration not stated)
inactive: A549 > 100 µM | SW-620 > 100 µM | EKVX > 100 µM | HCT-116 33.1 µM | NCI-H23 > 100 µM | NCI-H460 > 100 µM | SF-268 > 100 µM | OVCAR-5 > 100 µM | HOP-92 > 100 µM | HT-29 > 100 µM | UO-31 > 100 µM | K562 > 100 µM | OVCAR-8 > 100 µM | HCC 2998 > 100 µM | LOX IMVI 90.2 µM | 786-0 > 100 µM

O=S(=O)(Nc1ccc2ccc3cccc4ccc1c2c34)c1ccccc1
inactive: MDA-MB-435 3.82 µM | A549 52.8 µM | SW-620 30.1 µM | EKVX > 100 µM | HCT-116 30.8 µM | NCI-H23 96.6 µM | NCI-H460 37.3 µM | SF-268 43.6 µM | OVCAR-5 > 100 µM | DU-145 > 100 µM | HOP-92 4.84 µM | HT-29 49.2 µM | UO-31 35.1 µM | K562 6.7 µM | OVCAR-8 > 100 µM | NCI/ADR-RES 35.1 µM | LOX IMVI 40.6 µM | 786-0 29 µM

O=C(CC(Cl)=C(Cl)Cl)c1ccccc1
inactive: MDA-MB-435 36.3 µM | A549 > 100 µM | SW-620 38.3 µM | HCT-116 21.3 µM | NCI-H23 81.1 µM | NCI-H460 > 100 µM | SF-268 > 100 µM | OVCAR-5 46 µM | DU-145 > 100 µM | HOP-92 > 100 µM | HT-29 31.6 µM | UO-31 80.2 µM | K562 21.5 µM | OVCAR-8 > 100 µM | NCI/ADR-RES 74.8 µM | LOX IMVI 15 µM | 786-0 21.8 µM

CS/C(=C(\S)c1ccccc1)c1ccccc1
inactive: A549 > 100 µM | SW-620 > 100 µM | EKVX > 100 µM | HCT-116 > 100 µM | NCI-H23 > 100 µM | NCI-H460 > 100 µM | SF-268 > 100 µM | OVCAR-5 > 100 µM | HOP-92 > 100 µM | HT-29 > 100 µM | UO-31 > 100 µM | K562 > 100 µM | OVCAR-8 > 100 µM | HCC 2998 > 100 µM | LOX IMVI > 100 µM | 786-0 > 100 µM

O=C1C2Nc3ccccc3SC2C(=O)N1c1ccccc1C(F)(F)F (configuration not stated)
inactive: A549 20.2 µM | SW-620 21.4 µM | EKVX 54.8 µM | HCT-116 24.5 µM | NCI-H23 24 µM | NCI-H460 32.7 µM | SF-268 41.1 µM | OVCAR-5 > 100 µM | HOP-92 25 µM | HT-29 26.4 µM | UO-31 38.2 µM | K562 3.99 µM | OVCAR-8 33.7 µM | HCC 2998 16.7 µM | LOX IMVI 40.2 µM | 786-0 25.2 µM

C/C(=N/NC(N)=S)C(CN1CCOCC1)C(C1=C(O)c2ccccc2OC1)c1ccccc1 (configuration not stated)
inactive: A549 > 100 µM | SW-620 > 100 µM | EKVX > 100 µM | HCT-116 85.5 µM | NCI-H23 > 100 µM | NCI-H460 > 100 µM | SF-268 41.8 µM | OVCAR-5 > 100 µM | DU-145 > 100 µM | HOP-92 71.3 µM | HT-29 > 100 µM | UO-31 > 100 µM | K562 93.1 µM | OVCAR-8 > 100 µM | HCC 2998 > 100 µM | LOX IMVI > 100 µM | 786-0 > 100 µM

CC1=NN(c2nc(N)nc(CS(C)(=O)=O)n2)C(C)(C)C1
inactive: MDA-MB-435 > 100 µM | SW-620 > 100 µM | EKVX > 100 µM | HCT-116 > 100 µM | NCI-H23 > 100 µM | NCI-H460 > 100 µM | SF-268 > 100 µM | DU-145 > 100 µM | HOP-92 > 100 µM | HT-29 > 100 µM | UO-31 > 100 µM | K562 > 100 µM | OVCAR-8 > 100 µM | NCI/ADR-RES > 100 µM | HCC 2998 > 100 µM | LOX IMVI > 100 µM | 786-0 > 100 µM

COc1cc2c(cc1O)-c1c(cnn1-c1ccc([N+](=O)[O-])cc1)CCC2
inactive: MDA-MB-435 17.4 µM | A549 12.7 µM | SW-620 23.3 µM | EKVX 28.1 µM | HCT-116 18.3 µM | NCI-H23 13.8 µM | NCI-H460 10.3 µM | SF-268 8.95 µM | OVCAR-5 22.4 µM | DU-145 14.8 µM | HOP-92 3.75 µM | HT-29 16.4 µM | K562 32.9 µM | OVCAR-8 19.7 µM | NCI/ADR-RES 14.4 µM | LOX IMVI 12.6 µM | 786-0 12.9 µM

COC(=O)NN=C1C(C)(C)C(=O)C1(C)C
inactive: A549 > 100 µM | SW-620 > 100 µM | EKVX > 100 µM | HCT-116 > 100 µM | NCI-H23 > 100 µM | NCI-H460 > 100 µM | SF-268 > 100 µM | OVCAR-5 > 100 µM | HOP-92 > 100 µM | HT-29 > 100 µM | UO-31 > 100 µM | K562 > 100 µM | OVCAR-8 > 100 µM | HCC 2998 > 100 µM | LOX IMVI > 100 µM | 786-0 > 100 µM

NNC(=O)CC(=O)Nc1ccc(S(=O)(=O)c2ccc(NC(=O)CC(=O)NN)cc2)cc1
inactive: MDA-MB-435 > 100 µM | A549 > 100 µM | SW-620 > 100 µM | EKVX > 100 µM | HCT-116 > 100 µM | NCI-H23 > 100 µM | NCI-H460 > 100 µM | SF-268 > 100 µM | OVCAR-5 > 100 µM | DU-145 > 100 µM | HOP-92 > 100 µM | HT-29 > 100 µM | UO-31 > 100 µM | K562 > 100 µM | OVCAR-8 > 100 µM | NCI/ADR-RES > 100 µM | HCC 2998 > 100 µM | 786-0 > 100 µM

Oc1[nH]c(Nc2cccc(Cl)c2)nc2ncnc1-2
inactive: MDA-MB-435 83.8 µM | A549 > 100 µM | SW-620 > 100 µM | EKVX > 100 µM | HCT-116 62.4 µM | NCI-H23 > 100 µM | NCI-H460 > 100 µM | SF-268 > 100 µM | OVCAR-5 > 100 µM | DU-145 74.6 µM | HOP-92 83 µM | HT-29 53.7 µM | UO-31 > 100 µM | K562 86.5 µM | OVCAR-8 > 100 µM | NCI/ADR-RES > 100 µM | HCC 2998 76.6 µM | LOX IMVI 80.7 µM | 786-0 > 100 µM
